SMILES strings stand for the structures.

We go through 6 compounds from ChEMBL document CHEMBL1126901, “2-Thio derivatives of dUrd and 5-fluoro-dUrd and their 5'-monophosphates: synthesis, interaction with tumor thymidylate synthase, and in vitro antitumor activity” (J Med Chem, 1993).

The test system of test [1] is NIH3T3. Kind of test: Inhibitory concentration of compound was calculated on 3T3 cells by using clonal assay. Format: functional, cell-based, Mus musculus.
The subject of test [2] is L5178Y. The test is described as follows: Inhibitory concentration of compound rwas calculated on L5178Y cells by [3H]Thd incorporation. The class given is functional, cell-based, Mus musculus.
Test [3] has as its system NIH3T3. Kind of test: Inhibitory concentration of compound was calculated on 3T3 cells by [14C]Leu incorporation. The class given is functional, cell-based, Mus musculus.
Test [4] deals with NIH3T3. The test is described as follows: Inhibitory concentration was calculated on 3T3 cells by using growth assay. The class given is functional, cell-based, Mus musculus.
Test [5] deals with L5178Y. The test is described as follows: Inhibitory concentration of compound was calculated on L5178Y cells by using growth assay. The class given is functional, cell-based, Mus musculus.
For test [6], the system named is NIH3T3. The test is described as follows: Inhibitory concentration of compound rwas calculated on 3T3 cells by [3H]Thd incorporation. Format: functional, cell-based, Mus musculus.
Test [7] relates to L5178Y. Kind of test: Inhibitory concentration of compound was calculated on L5178Y cells by [14C]Leu incorporation. Format: functional, cell-based, Mus musculus.
For test [8], the system named is L5178Y. The test is described as follows: Inhibitory concentration of compound was calculated on L5178Y cells by using clonal assay. The class given is functional, cell-based, Mus musculus.
For test [9], the target named is T1, Thymidylate synthase (Mus musculus, UniProt P07607). The test is described as follows: Apparent Ki value was measured by competitive inhibition of Thymidylate Synthase from Ehrlich Carcinoma cells of mouse. The class given is cell-based.
Test [10] concerns the target Thymidylate synthase (Mus musculus) (UniProt P07607).
Description: The reaction rate(Ki') of compound was measured for inactivation of Ehrlich Carcinoma Thymidylate Synthases
The target is the same in test [11]. This is another data set of the same source.
Description: The reaction rate(Ki') of compound was measured for inactivation of L1210 Thymidylate Synthase
The target in test [12] is T1, Thymidylate synthase. The test is described as follows: Apparent Ki value was measured by competitive inhibition of Thymidylate Synthase from L1210 cells of mouse. Format: cell-based.
For test [13], the target named is Thymidylate synthase (Mus musculus) (UniProt P07607). The source holds these as a separate data set.
Description: The reaction rate(Ki'') of compound was measured for inactivation of Ehrlich Carcinoma Thymidylate Synthases
The target is the same in test [14]. This is another data set of the same source.
Description: The time dependent reaction (k2''(1/min)) of compound was measured for inactivation of Ehrlich Carcinoma Thymidylate Synthases
Test [15] shares this target. The source holds these as a separate data set.
Description: The time dependent reaction (k2''(1/min)) of compound was measured for inactivation of Ehrlich Carcinoma Thymidylate Synthase
Test [16] has the same target. The source holds these as a separate data set.
Description: The time dependent reaction (k2''(1/min)) of compound was measured for inactivation of L1210 Thymidylate Synthase
Test [17] shares this target. The source holds these as a separate data set.
Description: The time dependent reaction (k2'(1/min)) of compound was measured for inactivation of L1210 Thymidylate Synthase
For test [18] the target is unchanged. This is another data set of the same source.
Description: The reaction rate(Ki'') of compound was measured for inactivation of L1210 Thymidylate Synthase
For test [19] the target is unchanged. The source holds these as a separate data set.
Description: The time dependent reaction (k2'(1/min)) of compound was measured for inactivation of L1210 Thymidylate Synthases
Test [20] shares this target. The source holds these as a separate data set.
Description: The reaction rate(Ki') of compound was measured for inactivation of L1210 Thymidylate Synthases
For test [21] the target is unchanged. This is another data set of the same source.
Description: The reaction rate(Ki'') of compound was measured for inactivation of L1210 Thymidylate Synthases
The target is the same in test [22]. The source holds these as a separate data set.
Description: The time dependent reaction (k2'(1/min)) of compound was measured for inactivation of Ehrlich Carcinoma Thymidylate Synthases
Test [23] shares this target. The source holds these as a separate data set.
Description: The time dependent reaction (k2''(1/min)) of compound was measured for inactivation of L1210 Thymidylate Synthases

Thymidylate synthase (Mus musculus), sequence (P07607 whole entry, looked up): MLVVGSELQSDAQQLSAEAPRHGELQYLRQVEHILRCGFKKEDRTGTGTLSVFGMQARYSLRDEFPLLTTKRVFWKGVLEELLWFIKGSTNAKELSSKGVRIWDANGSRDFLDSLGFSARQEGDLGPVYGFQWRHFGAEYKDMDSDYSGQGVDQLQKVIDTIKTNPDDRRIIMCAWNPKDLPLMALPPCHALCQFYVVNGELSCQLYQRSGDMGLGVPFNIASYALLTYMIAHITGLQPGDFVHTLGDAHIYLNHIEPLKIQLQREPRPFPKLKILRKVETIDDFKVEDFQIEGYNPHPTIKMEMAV
T1 sequence (P07607 whole entry): as the sequence (P07607 whole entry, looked up) above

On to `O=c1[nH]c(=O)n([C@H]2C[C@H](O)[C@@H](CO)O2)cc1F` (stereo in doubt; 22) [FLOXURIDINE], for which the IC50 with NIH3T3 [1] (nih3t3) was 60 µM; in the test on L5178Y [2] (l5178y) it was 4000 nM; with NIH3T3 [3] (nih3t3) it was 250 µM; in the test with NIH3T3 [4] (nih3t3), 150 µM; with L5178Y [5] (l5178y), 5 µM; in the test on NIH3T3 [6] (nih3t3), 60 µM. Moreover, the IC50 with L5178Y [7] (l5178y) was 2000 nM; with L5178Y [8] (l5178y) it was 5 µM.
For the compound `O=c1[nH]c(=S)n(C2C[C@@H](OP(=O)(O)O)[C@@H](COP(=O)(O)O)O2)cc1F` (stereo not given in full), the Ki on Thymidylate synthase [9] was 140 nM; on Thymidylate synthase [12] it was 70 nM. Moreover, the results for the Ki' in test [10] and in test [11] were 79 nM and 41 nM, respectively. Besides, the Ki'' in test [13] stood at 49 nM; in test [18], 46 nM. Moreover, the k2' in test [14] is 0.36 min⁻¹; in test [17] it was 0.12 min⁻¹. For the same compound, the results for the k2'' in [15] and in test [16] were 0.06 min⁻¹ and 0.02 min⁻¹, respectively.
Take `O=c1[nH]c(=S)n([C@@H]2C[C@H](O)[C@@H](CO)O2)cc1F`: the IC50 was 500 µM in the test with NIH3T3 [1] (Mus musculus, NIH3T3); 10000 nM with L5178Y [2] (Mus musculus, L5178Y); 2000 µM in the test with NIH3T3 [3] (Mus musculus, NIH3T3); 400 µM with NIH3T3 [4] (Mus musculus, NIH3T3); 25 µM with L5178Y [5] (Mus musculus, L5178Y); 100 µM in the test on NIH3T3 [6] (Mus musculus, NIH3T3). For the same compound, the IC50 with L5178Y [7] (Mus musculus, L5178Y) was 10000 nM; in the test with L5178Y [8] (Mus musculus, L5178Y), 20 µM.
`O=c1[nH]c(=O)n([C@H]2C[C@H](O)[C@@H](COP(=O)(O)O)O2)cc1F`: the k2'' in test [19] stood at 0.12 min⁻¹; in [22] it was 0.17 min⁻¹. Also, the Ki' was determined as 1.8 nM in [20] and 5.5 nM in test [10]. In addition, the Ki'' was determined as 20 nM in test [21] and 71 nM in test [13]. The k2' in test [14] was 0.18 min⁻¹; in test [23], 0.17 min⁻¹.
With `O=c1[nH]c(=S)n([C@H]2C[C@H](O)[C@@H](CO)O2)cc1F`, the IC50 in the test on NIH3T3 [1] (Mus musculus, NIH3T3) is 7 µM; in the test on L5178Y [2] (Mus musculus, L5178Y), 1400 nM; with NIH3T3 [3] (Mus musculus, NIH3T3), 5 µM; in the test with NIH3T3 [4] (Mus musculus, NIH3T3) it was 4 µM; in the test with L5178Y [5] (Mus musculus, L5178Y), 2 µM; in the test with NIH3T3 [6] (Mus musculus, NIH3T3) it was 4 µM. The IC50 with L5178Y [7] (Mus musculus, L5178Y) is 1000 nM; with L5178Y [8] (Mus musculus, L5178Y) it was 4.5 µM.
`O=c1[nH]c(=O)n([C@H]2C[C@H](O)[C@@H](CO)O2)cc1F` (stereo in doubt) [FLOXURIDINE]: the IC50 in the test on NIH3T3 [1] (nih3t3) is 0.6 µM; with L5178Y [2] (l5178y), 15 nM; in the test with NIH3T3 [3] (nih3t3), 3.2 µM; with NIH3T3 [4] (nih3t3) it was 1 µM; in the test on L5178Y [5] (l5178y), 0.025 µM; in the test on NIH3T3 [6] (nih3t3), 0.5 µM. Besides, the IC50 is 9 nM in the test with L5178Y [7] (l5178y) and 0.02 µM in the test on L5178Y [8] (l5178y).
